Data taken from patent publication US9242998B2, “Tetracyclic heterocycle compounds and methods of use thereof for the treatment of hepatitis C” (priority 2013, dated 2016).

Legend:
HCV genotype 1a replicon = experiment: HCV replicon assay, genotype 1a (cell ELISA for replicon-encoded NS3/4A); format: cell-based; settings: Hepatitis C virus, 96 h, read-out: 1a IC50
Procedure: (§1) Measurement of inhibition by compounds was performed using the HCV replicon system. Several different replicons encoding different HCV genotypes or mutations were used. In addition, potency measurements were made using different formats of the replicon assay, including different ways of measurements and different plating formats. See Jan M. Vrolijk et al., A replicons-based bioassay for the measurement of interferons in patients with chronic hepatitis C, 110 J. V[…] 201 (2003); Steven S. Carroll et al., Inhibition of Hepatitis C Virus RNA Replication by 2′-Modified Nucleoside Analogs, 278(14) J. BIOLOGICAL CHEMISTRY 11979 (2003). However, the underlying principles are common to all of these determinations, and are outlined below.
(§2) Stable neomycin phosphotransferase encoding replicons-harboring cell lines were used, so all cell lines were maintained under G418 selection prior to the assay. Potency was determined using a cell ELISA assay with an antibody to the replicons encoded NS3/4a protease. See Caterina Trozzi et al., In Vitro Selection and Characterization of Hepatitis C Virus Serine Protease Variants Resistant to an Active-Site Peptide Inhibitor, 77(6) J. Virol. 3669 (2003). To initiate an assay, replicon cells were plated in the presence of a dilution series of test compound in the absence of G418. Typically, the assays were performed in a 96-well plate formate for manual operation, or a 384-well plate format for automated assay. Replicon cells and compound were incubated for 96 hours. At the end of the assay, cells were washed free of media and compound, and the cells were then lysed. RNA was quantified indirectly through detection of replicon-encoded NS3/4A protein levels, through an ELISA-based assay with an antibody specific for NS3/4A. IC50 determinations were calculated as a percentage of a DMSO control by fitting the data to a four-parameter fit function and the data obtained is provided in the table below.
(§3) Data for selected compounds of the present invention was obtained for genotypes 1a and 1b using this method and is provided in the table below: […]

HCV genotype 1b replicon = experiment: HCV replicon assay, genotype 1b (cell ELISA for replicon-encoded NS3/4A); format: cell-based; settings: Hepatitis C virus, 96 h, read-out: 1b IC50
Procedure: as §1, §2, §3

CNC(=O)c1c(-c2ccn(C)c(=O)c2)oc2cc(N(C)S(C)(=O)=O)c(-c3ccc4c(n3)-c3cc5c(F)cccc5n3CO4)cc12 [Compound 18, 5-(11-fluoro-6H-pyrido[2′,3′:5,6][1,3]oxazino[3,4-a]indol-2-yl)-N-methyl-2-(1-methyl-2-oxo-1,2-dihydropyridin-4-yl)-6-(N-methylmethylsulfonamido)benzofuran-3-carboxamide]
IC50 (HCV genotype 1a replicon): 57 nM
IC50 (HCV genotype 1b replicon): 29 nM

CNC(=O)c1c(-c2ccc(OC(F)(F)F)cc2)oc2cc(N(C)S(C)(=O)=O)c(-c3ccc4c(n3)-c3cc5c(F)cccc5n3CO4)cc12 [Compound 33]
IC50 (HCV genotype 1a replicon): 50 nM
IC50 (HCV genotype 1b replicon): 2.5 nM

CNC(=O)c1c(C2=CCSCC2)oc2cc(N(C)S(C)(=O)=O)c(-c3ccc4c(n3)-c3cc5c(F)cccc5n3CO4)cc12 [Compound 32, 2-(3,6-dihydro-2H-thiopyran-4-yl)-5-(11-fluoro-6H-pyrido[2′,3′:5,6][1,3]oxazino[3,4-a]indol-2-yl)-N-methyl-6-(N-methylmethylsulfonamido)benzofuran-3-carboxamide]
IC50 (HCV genotype 1a replicon): 36 nM
IC50 (HCV genotype 1b replicon): 14 nM

CNC(=O)c1c(-c2cnn(C)c2)oc2cc(N(C)S(C)(=O)=O)c(-c3ccc4c(n3)-c3cc5c(F)cccc5n3CO4)cc12 [Compound 5]
IC50 (HCV genotype 1a replicon): 4.4 nM
IC50 (HCV genotype 1b replicon): 7.5 nM

CNC(=O)c1c(/C(C)=N/OC)oc2cc(N(C)S(C)(=O)=O)c(-c3ccc4c(n3)-c3cc5c(F)cccc5n3CO4)cc12 [Compound 59, 5-(11-fluoro-6H-pyrido[2′,3′:5,6][1,3]oxazino[3,4-a]indol-2-yl)-2-(1-(methoxyimino)ethyl)-N-methyl-6-(N-methylmethylsulfonamido)benzofuran-3-carboxamide]
IC50 (HCV genotype 1a replicon): 34 nM
IC50 (HCV genotype 1b replicon): 13 nM

CNC(=O)c1c(-n2cccn2)oc2cc(N(C)S(C)(=O)=O)c(-c3ccc4c(n3)-c3cc5c(F)cccc5n3CO4)cc12 [Compound 40]
IC50 (HCV genotype 1a replicon): 16 nM
IC50 (HCV genotype 1b replicon): 22 nM

CNC(=O)c1c(C2=CCCC2)oc2cc(N(C)S(C)(=O)=O)c(-c3ccc4c(n3)-c3cc5c(F)cccc5n3CO4)cc12 [Compound 45]
IC50 (HCV genotype 1a replicon): 6.1 nM
IC50 (HCV genotype 1b replicon): 6.4 nM

CCOc1ccc(-c2oc3cc(N(C)S(C)(=O)=O)c(-c4ccc5c(n4)-c4cc6c(F)cccc6n4CO5)cc3c2C(=O)NC)cn1 [Compound 6]
IC50 (HCV genotype 1a replicon): 17 nM
IC50 (HCV genotype 1b replicon): 12 nM

CNC(=O)c1c(N2CCOCC2)oc2cc(N(C)S(C)(=O)=O)c(-c3ccc4c(n3)-c3cc5c(F)cccc5n3CO4)cc12 [Compound 42, 5-(11-fluoro-6H-pyrido[2′,3′:5,6][1,3]oxazino[3,4-a]indol-2-yl)-N-methyl-6-(N-methylmethylsulfonamido)-2-morpholinobenzofuran-3-carboxamide]
IC50 (HCV genotype 1a replicon): 85 nM
IC50 (HCV genotype 1b replicon): 35 nM

CNC(=O)c1c(-c2ccc(F)cn2)oc2cc(N(C)S(C)(=O)=O)c(-c3ccc4c(n3)-c3cc5c(F)cccc5n3CO4)cc12 [Compound 30]
IC50 (HCV genotype 1a replicon): 11 nM
IC50 (HCV genotype 1b replicon): 25 nM

CNC(=O)c1c(-c2ccc(OC(F)F)nc2)oc2cc(N(C)S(C)(=O)=O)c(-c3ccc4c(n3)-c3cc5c(F)cccc5n3CO4)cc12 [Compound 25, 2-(6-(difluoromethoxy)pyridin-3-yl)-5-(11-fluoro-6H-pyrido[2′,3′:5,6][1,3]oxazino[3,4-a]indol-2-yl)-N-methyl-6-(N-methylmethylsulfonamido)benzofuran-3-carboxamide]
IC50 (HCV genotype 1a replicon): 3 nM
IC50 (HCV genotype 1b replicon): 5 nM

CNC(=O)c1c(-c2ccnc(OC)c2)oc2cc(N(C)S(C)(=O)=O)c(-c3ccc4c(n3)-c3cc5c(F)cccc5n3CO4)cc12 [Compound 1, 5-(11-fluoro-6H-pyrido[2′,3′:5,6][1,3]oxazino[3,4-a]indol-2-yl)-2-(2-methoxypyridin-4-yl)-N-methyl-6-(N-methylmethylsulfonamido)benzofuran-3-carboxamide]
IC50 (HCV genotype 1a replicon): 11 nM
IC50 (HCV genotype 1b replicon): 14 nM

CNC(=O)c1c(-c2ccc(Oc3ccc(F)cc3)nc2)oc2cc(N(C)S(C)(=O)=O)c(-c3ccc4c(n3)-c3cc5c(F)cccc5n3CO4)cc12 [Compound 27, 5-(11-fluoro-6H-pyrido[2′,3′:5,6][1,3]oxazino[3,4-a]indol-2-yl)-2-(6-(4-fluorophenoxy)pyridin-3-yl)-N-methyl-6-(N-methylmethylsulfonamido)benzofuran-3-carboxamide]
IC50 (HCV genotype 1a replicon): 23 nM
IC50 (HCV genotype 1b replicon): 34 nM

CNC(=O)c1c(C23CCCC2C3)oc2cc(N(C)S(C)(=O)=O)c(-c3ccc4c(n3)-c3cc5c(F)cccc5n3CO4)cc12 (stereo not shown) [Compound 48, 2-(bicyclo[3.1.0]hexan-1-yl)-5-(11-fluoro-6H-pyrido[2′,3′:5,6][1,3]oxazino[3,4-a]indol-2-yl)-N-methyl-6-(N-methylmethylsulfonamido)benzofuran-3-carboxamide]
IC50 (HCV genotype 1a replicon): 28 nM
IC50 (HCV genotype 1b replicon): 34 nM

CNC(=O)c1c(C2CC2)oc2cc(N(C)S(C)(=O)=O)c(-c3ccc4c(n3)-c3cc5c(F)cccc5n3C(CO)O4)cc12 (single isomer, unassigned) [Compound 51, (R or S)-2-cyclopropyl-5-(11-fluoro-6-(hydroxymethyl)-6H-pyrido[2′,3′:5,6][1,3]oxazino[3,4-a]indol-2-yl)-N-methyl-6-(N-methylmethylsulfonamido)benzofuran-3-carboxamide]
IC50 (HCV genotype 1a replicon): 8.3 nM
IC50 (HCV genotype 1b replicon): 15 nM

CNC(=O)c1c(-c2ccc(OC(F)F)nc2)oc2cc(N(C)S(C)(=O)=O)c(-c3ccc4c(n3)-c3cc5c(F)cccc5n3C(CO)O4)cc12 (stereo not shown) [Compound 23]
IC50 (HCV genotype 1a replicon): 2.8 nM
IC50 (HCV genotype 1b replicon): 2.9 nM

CNC(=O)c1c(-c2ccc(OC(C)C)nc2)oc2cc(N(C)S(C)(=O)=O)c(-c3ccc4c(n3)-c3cc5c(F)cccc5n3CO4)cc12 [Compound 10]
IC50 (HCV genotype 1a replicon): 15 nM
IC50 (HCV genotype 1b replicon): 13 nM

CNC(=O)c1c(-n2cc(C)cn2)oc2cc(N(C)S(C)(=O)=O)c(-c3ccc4c(n3)-c3cc5c(F)cccc5n3CO4)cc12 [Compound 39]
IC50 (HCV genotype 1a replicon): 48 nM
IC50 (HCV genotype 1b replicon): 67 nM

CNC(=O)c1c(-c2ccc(C#N)cc2)oc2cc(N(C)S(C)(=O)=O)c(-c3ccc4c(n3)-c3cc5c(F)cccc5n3CO4)cc12 [Compound 29, 2-(4-cyanophenyl)-5-(11-fluoro-6H-pyrido[2′,3′:5,6][1,3]oxazino[3,4-a]indol-2-yl)-N-methyl-6-(N-methylmethylsulfonamido)benzofuran-3-carboxamide]
IC50 (HCV genotype 1a replicon): 13 nM
IC50 (HCV genotype 1b replicon): 25 nM

CNC(=O)c1c(C2=CCCC2)oc2cc(N(C)S(C)(=O)=O)c(-c3ccc4c(n3)-c3cc5ccccc5n3CO4)cc12 [Compound 44, 2-(cyclopent-1-en-1-yl)-N-methyl-6-(N-methylmethylsulfonamido)-5-(6H-pyrido[2′,3′:5,6][1,3]oxazino[3,4-a]indol-2-yl)benzofuran-3-carboxamide]
IC50 (HCV genotype 1a replicon): 6.2 nM
IC50 (HCV genotype 1b replicon): 8.3 nM

CNC(=O)c1c(-c2ccc(F)nc2)oc2cc(N(C)S(C)(=O)=O)c(-c3ccc4c(n3)-c3cc5c(F)cccc5n3CO4)cc12 [Compound 4]
IC50 (HCV genotype 1a replicon): 3 nM
IC50 (HCV genotype 1b replicon): 6.1 nM

CNC(=O)c1c(C(=O)N(C)C)oc2cc(N(C)S(C)(=O)=O)c(-c3ccc4c(n3)-c3cc5c(F)cccc5n3CO4)cc12 [Compound 55]
IC50 (HCV genotype 1a replicon): 4 nM
IC50 (HCV genotype 1b replicon): 6.4 nM

CNC(=O)c1c(C2=CCCC2)oc2cc(N(C)S(C)(=O)=O)c(-c3ncc4c(n3)-c3cc5c(F)cccc5n3CO4)cc12 [Compound 47]
IC50 (HCV genotype 1a replicon): 5.9 nM
IC50 (HCV genotype 1b replicon): 8.8 nM
